In ChEMBL document CHEMBL5058564, “EUbOPEN Chemogenomics Library 2 (Incucyte)” (2022):

Columns and labels:
Type in all cases: toxicity, cell-based
Fibroblast = test: Incucyte cell viability with human fibroblast; conditions: 10 µM, compound concentration 10 uM
U2OS = test: Incucyte cell viability with U2OS; conditions: human, 10 µM, compound concentration 10 uM
HEK-293T = test: Incucyte cell viability with HEK293T; conditions: human, 10 µM, compound concentration 10 uM
[1] = 0 h, replicate number 1, timepoint 0 hours
[2] = 0 h, replicate number 2, timepoint 0 hours
[3] = 6 h, replicate number 2, timepoint 6 hours
[4] = 12 h, replicate number 2, timepoint 12 hours
[5] = 18 h, replicate number 2, timepoint 18 hours
[6] = 24 h, replicate number 2, timepoint 24 hours
[7] = 6 h, replicate number 1, timepoint 6 hours
[8] = 18 h, replicate number 1, timepoint 18 hours
[9] = 24 h, replicate number 1, timepoint 24 hours
[10] = 12 h, replicate number 1, timepoint 12 hours
Also: unitless GR value; below 1 slowed growth and below 0 cell loss.

| Structure (SMILES) | Growth Rate (Fibroblast; [1]) | Growth Rate (Fibroblast; [2]) | Growth Rate (U2OS; [1]) | Growth Rate (U2OS; [2]) | Growth Rate (U2OS; [7]) | Growth Rate (U2OS; [8]) | Growth Rate (U2OS; [5]) | Growth Rate (U2OS; [9]) | Growth Rate (HEK-293T; [1]) | Growth Rate (HEK-293T; [2]) | Growth Rate (HEK-293T; [10]) | Growth Rate (Fibroblast; [7]) | Growth Rate (Fibroblast; [10]) | Growth Rate (Fibroblast; [8]) | Growth Rate (Fibroblast; [9]) | Growth Rate (U2OS; [10]) | Growth Rate (HEK-293T; [8]) | Growth Rate (U2OS; [6]) | Growth Rate (HEK-293T; [3]) | Growth Rate (HEK-293T; [4]) | other results |
| --- | --- | --- | --- | --- | --- | --- | --- | --- | --- | --- | --- | --- | --- | --- | --- | --- | --- | --- | --- | --- | --- |
| CC(C)c1cc(Oc2c(Cl)cc(-n3nc(C#N)c(=O)[nH]c3=O)cc2Cl)n[nH]c1=O [RESMETIROM] | -0.06 | 0.82 | 0.87 | 0.06 | 0.7 | 0.83 | 0.79 | 0.99 | 0.01 | 0.23 | 0.77 |  |  |  |  |  |  |  |  |  | Growth Rate (Fibroblast; [3]): 0.58; Growth Rate (Fibroblast; [4]): 0.74; Growth Rate (Fibroblast; [5]): 0.87; Growth Rate (Fibroblast; [6]): 0.85; Growth Rate (U2OS; [3]): 0.54; Growth Rate (U2OS; [4]): 0.75; Growth Rate (HEK-293T; [7]): 0.99; Growth Rate (HEK-293T; [5]): 0.96; Growth Rate (HEK-293T; [6]): 0.86 |
| Cc1c(Cc2ccc3ccccc3n2)c2cc(F)ccc2n1CC(=O)O [TIMAPIPRANT] | 0.53 | 0.31 |  | -1 | 0.37 | 0.63 | 0.96 |  |  | 0.4 |  | 0.6 | 0.51 | 0.8 | 0.87 | 0.81 | 0.82 |  |  |  |  |
| CCN1C(=CC(C)=O)Sc2ccc(OC)cc21 |  | 0.29 | -0.04 | -0.03 | 0.65 | 0.63 |  | 0.89 |  | -1 | 0.45 | -0.68 | 0.45 | 0.69 | 0.7 | 0.7 | 0.69 |  |  |  | Growth Rate (U2OS; [4]): 0.88; Growth Rate (HEK-293T; [7]): 0.17; Growth Rate (HEK-293T; [9]): 0.72 |
| Cc1cc(Nc2ncc(Cl)c(Nc3ccccc3S(=O)(=O)C(C)C)n2)c(OC(C)C)cc1C1CCNCC1 [CERITINIB] |  |  | -0.86 | -0.57 | -0.94 | -0.66 | -0.52 | -0.58 |  |  | -0.62 | -1 | -0.99 | -0.95 | -0.88 | -0.82 | -0.45 | -0.42 | -0.92 | -0.66 | Growth Rate (Fibroblast; [3]): -0.97; Growth Rate (Fibroblast; [4]): -0.78; Growth Rate (Fibroblast; [5]): -0.6; Growth Rate (Fibroblast; [6]): -0.52; Growth Rate (U2OS; [3]): -0.91; Growth Rate (U2OS; [4]): -0.74; Growth Rate (HEK-293T; [7]): -0.87; Growth Rate (HEK-293T; [5]): -0.48; Growth Rate (HEK-293T; [9]): -0.35; Growth Rate (HEK-293T; [6]): -0.38 |
| Cc1ccc(CNc2ncnc3ccc(-c4ccc(CO)o4)cc23)o1 | -0.65 | 0.65 | -0.73 |  |  |  |  |  | 0.47 |  |  |  |  |  |  |  |  |  |  |  |  |
| Cc1ccc(OCC(O)C(C)NC(C)C)c2c1CCC2.Cl (stereo not given) | 0.41 | 0.52 | 0.09 | 0.28 | 1 | 0.98 |  |  |  | 0.95 | 0.49 |  | 0.74 | 0.5 | 0.38 | 0.83 | 0.16 |  | 0.7 | 0.63 | Growth Rate (Fibroblast; [3]): 0.19; Growth Rate (Fibroblast; [4]): 0.32; Growth Rate (Fibroblast; [5]): 0.54; Growth Rate (Fibroblast; [6]): 0.51; Growth Rate (U2OS; [3]): 0.87; Growth Rate (HEK-293T; [5]): 0.65; Growth Rate (HEK-293T; [9]): 0.03; Growth Rate (HEK-293T; [6]): 0.62 |
| Cn1cnc(-c2cc3nccc(Oc4ccc(NC(=S)NC(=O)Cc5ccccc5)cc4F)c3s2)c1 |  | 0.94 | -0.11 | -0.99 |  |  | 0.93 |  |  |  | -0.02 | 0.43 | -0.11 | 0.43 | 0.31 |  | 0.28 | 0.98 | -0.26 | 0.34 | Growth Rate (Fibroblast; [3]): -0.42; Growth Rate (Fibroblast; [4]): 0.3; Growth Rate (Fibroblast; [5]): 0.77; Growth Rate (U2OS; [4]): 0.95; Growth Rate (HEK-293T; [7]): -0.37; Growth Rate (HEK-293T; [5]): 0.64; Growth Rate (HEK-293T; [9]): 0.6; Growth Rate (HEK-293T; [6]): 0.99 |
| COc1ccc(S(=O)(=O)N2C(=O)[C@@](c3ccccc3OC)(N3C[C@H](O)C[C@H]3C(=O)N(C)C)c3cc(Cl)ccc32)c(OC)c1 |  |  | 0.6 | -1 | 0.33 | 0.82 | 0.98 |  |  |  |  | 0.08 | 0.09 | 0.36 | 0.43 |  |  | 0.9 | 0.78 |  | Growth Rate (Fibroblast; [3]): -0.04; Growth Rate (Fibroblast; [4]): 0.24; Growth Rate (Fibroblast; [5]): 0.45; Growth Rate (Fibroblast; [6]): 0.6 |
| CN1CCc2cc(Cl)c(O)cc2[C@@H](c2ccccc2)C1.Cl |  |  |  | -1 |  |  | 0.86 |  |  | 0.66 |  | -0.06 | 1 |  | 0.88 |  |  | 0.95 | 0.46 | 0.71 | Growth Rate (U2OS; [3]): 0.49 |
| O=C(NCCNCC(O)COc1ccc(O)cc1)N1CCOCC1.O=C(NCCNCC(O)COc1ccc(O)cc1)N1CCOCC1.O=C(O)/C=C/C(=O)O (stereo not given) [XAMOTEROL FUMARATE] | -0.24 | -0.01 | 0.31 | -1 |  |  |  |  | 0.82 |  |  |  |  |  |  |  |  |  | 0.64 | 0.95 |  |
| CC1=C(C)C(=O)C(C(CCCCCC(=O)O)c2ccccc2)=C(C)C1=O (stereo not given) [SERATRODAST] | 1 |  | -0.5 | -1 |  |  |  |  |  |  |  | 0.67 |  |  |  |  |  | 0.99 | 0.54 | 0.63 |  |
| CC(C)Oc1ccc(-c2c[nH]cc2CN(C)CCO)cc1 | 0.53 | 0.41 | -0.46 | 0.69 | 0.97 | 0.71 |  | 0.94 | 0.59 | 0.6 |  |  |  |  |  | 0.45 |  |  |  |  | Growth Rate (HEK-293T; [9]): 1 |
| Cc1cc(C)cc([C@H]2c3cc(C)ccc3NC(=O)CN2C(=O)c2ccc(Br)s2)c1 | 0.07 | 0.88 | -0.56 |  | 0.12 | 0.52 | 0.88 | 0.67 | -0.3 | 0.03 | 0.79 | 0.06 | 0.6 | 0.44 | 0.33 | 0.65 | 0.58 | 0.94 |  | 0.81 | Growth Rate (Fibroblast; [4]): 0.64; Growth Rate (Fibroblast; [6]): 0.97; Growth Rate (HEK-293T; [7]): 0.95; Growth Rate (HEK-293T; [5]): 0.92; Growth Rate (HEK-293T; [9]): 0.65; Growth Rate (HEK-293T; [6]): 0.83 |
| CC(C)c1cc(-c2ccc(F)c3ccccc23)nc(N)n1 | -0.03 |  |  | -0.96 | 0.62 | 0.86 | 0.79 | 0.73 | 0.46 | 0.76 |  | 0.51 | 0.58 | 0.4 | 0.62 | 0.81 |  | 0.89 | 0.72 |  | Growth Rate (U2OS; [3]): 0.83 |
| OC[C@H]1O[C@@H](n2cnc3c(NC4CCCC4)ncnc32)[C@H](O)[C@@H]1O [N6-CYCLOPENTYLADENOSINE] | 0.37 | -0.09 |  |  | 0.36 | 0.53 | 0.93 | 0.71 | -0.12 | -0.14 | 0.81 |  |  |  |  | 0.69 | 0.75 | 1 | 0.12 | 0.6 | Growth Rate (Fibroblast; [6]): 0.92; Growth Rate (U2OS; [3]): 0.74; Growth Rate (U2OS; [4]): 0.94; Growth Rate (HEK-293T; [7]): 0.92; Growth Rate (HEK-293T; [5]): 0.65; Growth Rate (HEK-293T; [9]): 0.73; Growth Rate (HEK-293T; [6]): 0.66 |
